Measurements from patent US20100081679A1, “DIAMINOPYRIMIDINES AS FUNGICIDES” (Bayer CropScience AG, priority 2007, published 2010).
Marks after values point to notes of the source that are not given here. One block for each molecule: values may come before it.

Assay: logP determination via retention times, calibrated with unbranched alkan-2-ones
Assay type: physicochemical
[1] = method **: HPLC, reversed-phase C 18, 43° C., mobile phase 0.1% aqueous phosphoric acid and acetonitrile, linear gradient from 10% to 95% acetonitrile
[2] = method **: HPLC reversed-phase C 18, temperature 43° C., mobile phase 0.1% aqueous phosphoric acid and acetonitrile, linear gradient 10% to 95% acetonitrile
[3] = method *: HPLC reversed-phase C 18, temperature 40° C., mobile phase 0.1% aqueous formic acid and acetonitrile, linear gradient 10% to 95% acetonitrile
[4] = method **: HPLC reversed-phase C 18, 43° C., 0.1% aqueous phosphoric acid and acetonitrile, linear gradient 10% to 95% acetonitrile
[5] = HPLC on reversed-phase C18, method *: 40° C., 0.1% aqueous formic acid and acetonitrile, linear gradient 10% to 95% acetonitrile
[6] = HPLC on reversed-phase C 18, EEC Directive 79/831 Annex V.A8, method *: 40° C., 0.1% aqueous formic acid and acetonitrile, linear gradient 10% to 95% acetonitrile
[7] = method *: HPLC reversed-phase C18, 40° C., 0.1% aqueous formic acid and acetonitrile, linear gradient 10% to 95% acetonitrile
[8] = HPLC on reversed-phase C18, method *: 40° C., mobile phase 0.1% aqueous formic acid and acetonitrile, linear gradient 10% to 95% acetonitrile
[9] = HPLC reversed-phase C 18, EEC Directive 79/831 Annex V.A8, method *: 40° C., 0.1% aqueous formic acid and acetonitrile, linear gradient 10% to 95% acetonitrile
[10] = method *: HPLC, reversed-phase C 18, 40° C., mobile phase 0.1% aqueous formic acid and acetonitrile, linear gradient from 10% to 95% acetonitrile
[11] = HPLC on reversed-phase C18 column (EEC Directive 79/831 Annex V.A8), method *: 40° C., 0.1% aqueous formic acid and acetonitrile, linear gradient 10% to 95% acetonitrile

- logP [1]: 3.7**
Compound: FS(F)(F)(F)(F)c1cccc(Nc2ncc(Cl)c(NC3CC3)n2)c1 [compound 1052]

- logP [2]: 2.41**
- logP [3]: 2.21*;
Compound: COc1ccc(Nc2ncc(C(F)(F)F)c(NC3CC3)n2)cc1 [compound 641]

- logP [4]: 1.85**
Compound: Clc1cnc(Nc2ccccc2)nc1NCC1CC1 [Example 10]

- logP [5]: 2.65*
Compound: FC(F)C(F)(F)Oc1ccc(Nc2ncc(Cl)c(NC3CC3)n2)cc1 [compound 108]

- logP [6]: 2.36*
Compound: O=C(Nc1cccc(Nc2ncc(Br)c(NCC3CC3)n2)c1)Oc1ccccc1 [compound 466]

- logP [3]: 1.55*
Compound: CC(C)(CF)C(=O)Nc1cccc(Nc2ncc(F)c(NC3CC3)n2)c1 [compound 600]

- logP [7]: 2.84*
Compound: CSc1ccc(Nc2ncc(Cl)c(NC3CC3)n2)cc1Cl [compound 377]

- logP [6]: 1.64*
Compound: O=C(c1ccc(Nc2ncc(Br)c(NCC3CC3)n2)cc1)N1CCOCC1 [compound 484]

- logP [8]: 2.27*
Compound: CC(C)(C)OC(=O)Nc1cccc(Nc2ncc(Cl)c(NC3CC3)n2)c1 [compound 330]

- logP [6]: 1.81*
Compound: CC(C)(C)NC(=O)Cc1cccc(Nc2ncc(Cl)c(NC3CC3)n2)c1 [compound 562]

- logP [6]: 1.58*
Compound: CN(C)C(=O)c1cccc(Nc2ncc(Cl)c(NCC3CC3)n2)c1 [compound 519]

- logP [7]: 2.15*
Compound: CC(C)(C)OC(=O)NCc1ccc(Nc2ncc(Cl)c(NC3CC3)n2)cc1 [compound 90]

- logP [5]: 3.76*
Compound: Clc1cnc(Nc2cccc(Cl)c2Cl)nc1NC1CC1 [compound 937]

- logP [3]: 1.37*
Compound: O=C1CCCN1c1cccc(Nc2ncc(F)c(NC3CC3)n2)c1 [compound 599]

- logP [7]: 6.16*
Compound: CCCCCCCCSc1cccc(Nc2ncc(Cl)c(NC3CC3)n2)c1.Cc1ccc(S(=O)(=O)O)cc1 [compound 442]

- logP [3]: 2.23*
Compound: CC(=O)c1cccc(Nc2ncc(C#N)c(NC3CC3)n2)c1 [compound 610]

- logP [7]: 1.54*
Compound: CCC(=O)Nc1cccc(Nc2ncc(Br)c(NC3CC3)n2)c1 [compound 381]

- logP [8]: 1.9*
Compound: Clc1cnc(Nc2ccc(-c3cscn3)cc2)nc1NC1CC1 [compound 286]

- logP [5]: 3.1*
Compound: COC(=O)c1ccc(Nc2ncc(Cl)c(NCC3CC3)n2)cc1Cl [compound 691]

- logP [5]: 2.12*
Compound: CC(C)(C)OC(=O)Nc1ccc(Nc2ncc(Cl)c(NC3CC3)n2)cc1 [Example 100]

- logP (HPLC on reversed-phase C18, method **: 43° C., mobile phase 0.1% aqueous phosphoric acid and acetonitrile, linear gradient 10% to 95% acetonitrile): 1.57**
Compound: O=S(=O)(Cc1ccc(Nc2ncc(Cl)c(NC3CC3)n2)cc1)N1CCOCC1 [compound 314]

- logP [6]: 2.13*
Compound: CCC(=O)c1cc(Nc2ncc(Cl)c(NCC3CC3)n2)ccc1O [compound 541]

- logP [9]: 2.08*
Compound: CN(C)C(=O)c1ccc(Nc2ncc(C(F)(F)F)c(NC3CC3)n2)cc1 [compound 824]

- logP [5]: 2.26*
Compound: N#Cc1cccc(Nc2ncc(Cl)c(NCC3CC3)n2)c1 [compound 685]

- logP [7]: 1.62*
Compound: O=C(Nc1cccc(Nc2ncc(Cl)c(NC3CC3)n2)c1)C1CC1 [Example 84]

- logP (HPLC reversed-phase C 18, EEC Directive 79/831 Annex V.A8, method **: 43° C., 0.1% aqueous phosphoric acid and acetonitrile, linear gradient 10% to 95% acetonitrile): 2.23**
Compound: CSc1cccc(Nc2nc(C)c(Cl)c(NC3CC3)n2)c1 [compound 837]

- logP [1]: 0.83**
Compound: Clc1cnc(Nc2cccc(Cn3ccnc3)c2)nc1NC1CC1 [compound 1046]

- logP [10]: 2.13*
Compound: CN(c1nc(Nc2cccc(N3CCOC3=O)c2)ncc1Cl)C1CC1 [compound 1055]

- logP [8]: 3.18*
Compound: FC(F)(F)Oc1cccc(Nc2ncc(Cl)c(NC3CC3)n2)c1 [compound 300]

- logP [7]: 1.63*
Compound: CC(C)C(=O)Nc1cccc(Nc2ncc(Cl)c(NC3CC3)n2)c1 [Example 86]

- logP [4]: 2.75**
Compound: CCCCNS(=O)(=O)c1ccc(Nc2ncc(Cl)c(NCC3CC3)n2)cc1 [compound 23]

- logP [5]: 3.33*
Compound: FC(F)(F)c1ccc(Nc2ncc(Cl)c(NCC3CC3)n2)cc1 [compound 684]

- logP [6]: 2.74*
Compound: O=C(N(c1ccc(Nc2ncc(Br)c(NCC3CC3)n2)cc1)C1CC1)C(F)(F)F [compound 465]

- logP [10]: 4.6*
Compound: FC(F)(F)c1cc(Br)cc(Nc2ncc(Cl)c(NC3CC3)n2)c1 [compound 998]

- chromatographic logP (pH 2.3, read-out: logP (pH2.3)): 1.56
Compound: O=c1[nH]c(Nc2ccccc2)ncc1Cl [2-Anilino-5-chloropyrimidin-4(3H)-one]

- logP [6]: 1.59*
Compound: CC(=O)N1CCc2cc(Nc3ncc(Cl)c(NCC4CC4)n3)ccc21 [compound 518]

- logP [3]: 4.08*
Compound: FC(F)(F)Oc1cccc(Nc2ncc(C(F)(F)F)c(NC3CC3)n2)c1 [compound 643]

- logP [5]: 3.38*
Compound: CC(C)Sc1cccc(Nc2ncc(Br)c(NC3CC3)n2)c1 [compound 707]

- logP [5]: 1.61*
Compound: Cc1ccccc1Nc1ncc(Cl)c(NC2CC2)n1 [compound 938]

- logP [6]: 1.45*
Compound: Clc1cnc(Nc2cccc(N3CCCCC3)c2)nc1NC1CC1 [compound 535]

- logP [10]: 2.46*
Compound: COC(=O)c1cc(Nc2ncc(Cl)c(NC3CC3)n2)cc(C(=O)OC)c1 [compound 1001]

- logP [8]: 1.8*
Compound: COc1cccc(Nc2ncc(Cl)c(NC3CC3)n2)c1 [compound 283]

- logP [11]: 1.09*
Compound: Cc1cc(O)ccc1Nc1ncc(Cl)c(NC2CC2)n1 [compound 177]

- logP [7]: 1.58*
Compound: O=C1CCCCN1Cc1cccc(Nc2ncc(Cl)c(NC3CC3)n2)c1 [compound 373]

- logP [5]: 1.85*
Compound: CCC(=O)Nc1cc(Nc2ncc(Br)c(NC3CC3)n2)ccc1O [compound 767]

- logP [6]: 1.49*
Compound: CN(C)C(=O)Nc1ccc(Nc2ncc(Cl)c(NCC3CC3)n2)cc1 [compound 548]

- logP [5]: 4.14*
Compound: CC(C)c1cccc(Nc2ncc(C(F)(F)F)c(NC3CC3)n2)c1 [compound 973]

- logP [5]: 0.91*
Compound: Clc1cnc(Nc2cccc(-n3ccnc3)c2)nc1NC1CC1 [compound 720]

- logP [11]: 1.41*
Compound: O=C1CCCc2ccc(Nc3ncc(Cl)c(NC4CC4)n3)cc2N1 [compound 181]

- logP [11]: 1.99*
Compound: CCC(=O)c1cc(Nc2ncc(Cl)c(NC3CC3)n2)ccc1O [compound 250]

- logP [5]: 1.83*
Compound: CC(=O)CCc1cccc(Nc2ncc(Br)c(NC3CC3)n2)c1 [compound 967]

- logP [5]: 2.21*
Compound: CC(C)(C)NC(=O)c1ccc(Nc2ncc(Cl)c(NCC3CC3)n2)cc1 [compound 673]

- logP [8]: 2.18*
Compound: CSc1ccc(Nc2ncc(Br)c(NC3CC3)n2)cc1 [compound 353]

- logP [7]: 1.05*
Compound: O=C1Cc2cc(Nc3ncc(Cl)c(NC4CC4)n3)ccc2N1 [Example 56]

- logP [10]: 1.66*
Compound: Clc1cnc(Nc2ccc3ncsc3c2)nc1NC1CC1 [compound 995]

- logP [6]: 1.66*
Compound: CCC(=O)Nc1cccc(Nc2ncc(Br)c(NCC3CC3)n2)c1 [compound 483]

- logP [6]: 1.49*
Compound: Oc1ccc(Nc2ncc(Cl)c(NCC3CC3)n2)cc1F [compound 554]

- logP [2]: 2.38**
Compound: Brc1cnc(Nc2cccc(N3CCCC3)c2)nc1NC1CC1 [compound 621]

- logP [5]: 2.13*
Compound: CC(=O)c1ccc(Nc2ncc(Cl)c(NCC3CC3)n2)cc1 [compound 678]

- logP [3]: 1.8*
Compound: O=C(NCC(F)(F)F)c1cccc(Nc2ncc(Cl)c(NC3CC3)n2)c1 [compound 630]

- logP [5]: 4.3*
Compound: Clc1cc(Cl)cc(Nc2ncc(Cl)c(NCC3CC3)n2)c1 [compound 690]

- logP [9]: 2.74*
Compound: COC(c1cccc(Nc2ncc(Cl)c(NCC3CC3)n2)c1)C(F)(F)F (stereo not drawn) [compound 792]

- logP [3]: 4.08*
Compound: CSc1ccc(Nc2ncc(C(F)(F)F)c(NC3CC3)n2)cc1Cl [compound 646]

- logP [7]: 1.22*
Compound: OCc1cccc(Nc2ncc(Cl)c(NC3CC3)n2)c1 [Example 82]

- logP [9]: 1.33*
Compound: COCC(=O)Nc1cccc(Nc2ncc(Cl)c(NC3CC3)n2)c1 [compound 793]

- logP [5]: 2.11*
Compound: CC(C)C(=O)Nc1ccc(Nc2ncc(C(F)(F)F)c(NC3CC3)n2)cc1 [compound 663]

- logP [8]: 2.59*
Compound: O=C1CCCN1c1cc(Nc2ncc(Cl)c(NC3CC3)n2)c(Cl)cc1Cl [compound 298]

- logP [11]: 2.84*
Compound: O=C(Nc1ccc(Nc2ncc(C(F)(F)F)c(NCC3CC3)n2)cc1)C(F)(F)F [compound 203]

- logP [11]: 3.03*
Compound: FC(F)C(F)(F)Oc1cccc(Nc2ncc(Cl)c(NC3CC3)n2)c1 [compound 182]

- logP (HPLC on reversed-phase C 18, method **: 43° C., 0.1% aqueous phosphoric acid and acetonitrile, linear gradient 10% to 95% acetonitrile): 1.64**
Compound: CC(=O)Nc1ccc(Nc2ncc(C(F)(F)F)c(NC3CC3)n2)cc1 [compound 956]

- logP [5]: 3.04*
Compound: O=C(c1ccc(Nc2ncc(C(F)(F)F)c(NCC3CC3)n2)cc1)N1CCCCC1 [compound 704]

- logP [5]: 1.64*
Compound: COC(=O)Nc1ccc(Nc2ncc(Cl)c(NC(C)C3CC3)n2)cc1 (stereo not drawn) [compound 168]

- logP [7]: 2.21*
Compound: CSc1cccc(Nc2ncc(Cl)c(NC3CC3)n2)c1 [Example 74]

- logP [8]: 2.06*
Compound: CCOc1cccc(Nc2ncc(Cl)c(NC3CC3)n2)c1 [compound 293]

- logP [9]: 1.67*
Compound: CC(=O)Cc1cccc(Nc2ncc(Cl)c(NCC3CC3)n2)c1 [compound 781]

- logP [6]: 2.70*
Compound: COc1cc(Nc2ncc(Br)c(NC3CC3)n2)ccc1Cl [compound 532]

- logP [9]: 2.63*
Compound: CSC(C)c1cccc(Nc2ncc(Br)c(NC3CC3)n2)c1 (stereo not drawn) [compound 811]
